Results from publication PMC9052211 (RSC Advances, 2020).

What was measured:
Assay type in all cases: cell-based
[1] = Cytotoxic activity by flow cytometry with 7-AAD staining, HEK293; details: human
U937 neoplastic cells = assay: Cytotoxic activity by flow cytometry with 7-AAD staining, U937; details: Homo sapiens, U-937, 24 h, read-out: Cytotoxic activity IC50, U937
K562 neoplastic cells = assay: Cytotoxic activity by flow cytometry with 7-AAD staining, K562; details: Homo sapiens, K562, 24 h, read-out: Cytotoxic activity IC50, K562
Jurkat neoplastic cells = assay: Cytotoxic activity by flow cytometry with 7-AAD staining, Jurkat; details: Homo sapiens, 24 h, read-out: Cytotoxic activity IC50, Jurkat

| Compound | IC50 at 24 h [1] [µM] | IC50 (U937 neoplastic cells) [nM] | IC50 (K562 neoplastic cells) [nM] | IC50 (Jurkat neoplastic cells) [nM] |
| --- | --- | --- | --- | --- |
| Cc1n[nH]c(C)c1CSc1ccccc1 [Compound 4a, 3,5-Dimethyl-4-[(phenylsulfanyl)methyl]-1H-pyrazole] | 3.8 ± 0.03 | 2940 ± 30 | 2890 ± 30 | 2470 ± 30 |
| Cc1n[nH]c(C)c1CSc1ccc(O)cc1 [Compound 4d, 4-{[(3,5-Dimethyl-1H-pyrazol-4-yl)methyl]sulfanyl}-phenol] | 3.34 ± 0.08 | 2270 ± 20 | 2340 ± 10 | 1890 ± 20 |
| Cc1n[nH]c(C)c1CSC1CCCCC1 [Compound 4c, 4-[(Cyclohexylsulfanyl)methyl]-3,5-dimethyl-1H-pyrazole] | 3.15 ± 0.05 | 1980 ± 70 | 2160 ± 60 | 1490 ± 60 |
| Cc1n[nH]c(C)c1CSCc1ccccc1 [Compound 4b, 4-[(Benzylsulfanyl)methyl]-3,5-dimethyl-1H-pyrazole] | 2.98 ± 0.06 | 2150 ± 60 | 1980 ± 60 | 1240 ± 50 |
